Here are results for two compounds from US9322034B2, “Compositions and methods for detecting and modulating cell death by a translation regulated gene expression system” (Wayne State University, priority 2007, dated 2016).

Data set [1] in a line: Pro-drug induced cell death, Trypan blue cell viability assay, control cells. The class given is cell-based. The conditions noted are these: human, HEK293 or HEK CMV-EYFP cells (control cells); any concentration (10 nM to 10 μM), 3 or 4 days; read-out: cells remaining Trypan blue viable. The protocol: (§1) In this example, HEK293, HEK CMV-EYFP, and HEK TRplp-TKsr39 cells are treated with various amounts of the pro-drug ganciclovir and tested for cell death after 4 days incubation using the Trypan blue staining assay. Cells are plated into 6-well trays, grown to 70-80% confluence, and treated with DMEM, 10% FBS supplemented with ganciclovir (0, 10 nM, 100 nM, 1 μM, 5 μM or 10 μM) for 4 days. Viable cell counts are performed at 3 days and 4 days post-incubation (FIG. 13).

For the next data set, the target named is TKsr39 protein (Human herpesvirus 1, UniProt Q9QNF7, A168F/F161L/I160F/L159I/L169M). Particulars: TKsr39 versus wildtype TK protein; cited from earlier work.
Data set [2] deals with HEK293 TRplp-TKsr39 cells. Description: Pro-drug induced cell death, Trypan blue cell viability assay. It counts as cell-based, human. The protocol: as §1
Data set [3] concerns HEK293 or HT1080 cells transduced with rAAV TRplp-EYFP / TRdm-EYFP. The data set is described as follows: TR-EYFP translation after rAAV transduction. The conditions noted are these: 25 μM, 24 hr. It counts as cell-based, human. As to the method:
This example is to show delivery of the TRplp-EYFP and TRdm-EYFP cassettes to HEK293 and HT1080 cells using rAAV transduction. HEK293 or HT1080 cells are plated on flame sterilized glass slides and grown until 60-70% confluent (1-2 days), washed with L-DMEM (DMEM containing 2% fetal bovine serum), and infected with rAAV for 2 hr. The medium is replaced with DMEM, 10% FBS and the cells are incubated for 24 hours. Infected cells are treated with DMEM, 10% FBS supplemented with toxic levels of MG132 (25 μM) for 24 hr prior to direct microscopic or Western analysis as described above.

The subject of a further data set is HEK293 cells. The data set is described as follows: Trypan blue staining of HEK293 cells treated with toxic agents. The class given is cell-based, human. Particulars: 50 micromolar, within 24 hr.
The subject of data set [4] is HEK293 cell pools expressing the fLUC-TRplp-EYFP, fLUC-TRdm-EYFP, pcuLf-TRplp-EYFP or pcuLf-TRdm-EYFP expression cassettes. Description: Cytotoxicity assay by Western blot, bicistronic TR cassettes. The class given is cell-based, human. Particulars: toxic doses. (In general: Immunoblotting shows a protein as a band on a membrane.)

Each structure is given as a SMILES string. Where a SMILES comes first, the peptide text is derived from it. The star is where a group is joined. Cbz = O=C(OCc1ccccc1)*

Chain of TKsr39 protein (Q9QNF7 whole entry A168F/F161L/I160F/L159I/L169M, looked up): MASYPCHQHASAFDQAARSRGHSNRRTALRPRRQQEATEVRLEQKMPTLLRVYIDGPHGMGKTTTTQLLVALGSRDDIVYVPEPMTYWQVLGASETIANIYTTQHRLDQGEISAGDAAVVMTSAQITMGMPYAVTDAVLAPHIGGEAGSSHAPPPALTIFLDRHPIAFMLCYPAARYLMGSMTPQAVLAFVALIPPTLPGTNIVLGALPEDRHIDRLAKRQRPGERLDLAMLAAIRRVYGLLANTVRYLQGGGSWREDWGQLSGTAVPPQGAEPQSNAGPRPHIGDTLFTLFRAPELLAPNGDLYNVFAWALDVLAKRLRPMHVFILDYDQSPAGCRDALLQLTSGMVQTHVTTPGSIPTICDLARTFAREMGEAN

Regarding `Nc1nc(O)c2ncn(COC(CO)CO)c2n1` [ganciclovir], in data set [1], the viability lay in the range of 98 to 100%. Besides, on TKsr39 protein, the “prodrug binding of TKsr39 protein, higher than the wildtype protein” value was 83 fold. Further, the “cell viability compared to untreated cells” value is given as “does not exhibit any decrease in cell viability” in data set [2] (10 nM, 3 days) and “slight decrease” in data set [2] (100 nM, 3 days). The viability at 10 µM was 86% in data set [2] (Homo sapiens, HEK293, 72 h, 3 days) and 33.7% in data set [2] (Homo sapiens, HEK293, 96 h, 4 days). The compound also yielded a viability at 0.01 µM in data set [2] (Homo sapiens, HEK293, 96 h, 10 nM, 4 days) of 99.7%.
With `CC(C)C[C@@H](C=O)NC(=O)[C@H](CC(C)C)NC(=O)[C@H](CC(C)C)NC(=O)OCc1ccccc1` [MG132] (Cbz-Leu-Leu-Leu-aldehyde), the “translation of EYFP in rAAV transduced cells compared to uninfected control cells” value in data set [3] was “exhibit selective translation of the fluorescent EYFP protein”. In the data set on HEK293 cells, the “cell death in HEK293 cells as determined by Trypan blue staining” value is recorded as “complete cell death”. Also, in data set [4], the “EYFP translation in cell pools expressing the bicistronic TR cassettes (Western blot, FIG. 4)” value is listed as “induce EYFP translation”.
